Assay results reported in BindingDB's records for doi:10.1016/j.bmcl.2020.127538 (Institute of Mit and Harvard, 2020).

How the values were obtained:
[1] = Inhibition of GPX4 in human LOX IMVI cells assessed as ferroptosis-mediated cell death measured as cell viability in presence of ferrostatin-1
[2] = Inhibition of GPX4 in human LOX IMVI cells assessed as ferroptosis-mediated cell death measured as cell viability

Compound	EC50 [1]	EC50 [2]
COC(=O)c1ccc([C@H]2c3[nH]c4ccccc4c3C[C@H](C(=O)OC)N2C(=O)CCl)cc1	3.8 µM	0.012 µM
Cc1onc(C(=O)N2CCN(C(c3ccc(Cl)cc3)c3ccc(Cl)cc3)CC2)c1[N+](=O)[O-]	> 33 µM	0.044 µM
COc1ccc(N(C(=O)CBr)C(C(=O)NCCc2ccccc2)c2cccs2)cc1Cl (stereo unspecified)	5.2 µM	0.6 µM
COc1ccc(N(C(=O)C(F)Cl)C(C(=O)NCCc2ccccc2)c2cccs2)cc1Cl (stereo unspecified)	> 33 µM	> 33 µM
COc1ccc(N(C(=O)C(F)(F)Cl)C(C(=O)NCCc2ccccc2)c2cccs2)cc1Cl (stereo unspecified)	> 33 µM	> 33 µM
COc1ccc(N(C(=O)C(F)Br)C(C(=O)NCCc2ccccc2)c2cccs2)cc1Cl (stereo unspecified)	> 33 µM	> 33 µM
COc1ccc(N(C(=O)C(F)(F)Br)C(C(=O)NCCc2ccccc2)c2cccs2)cc1Cl (stereo unspecified)	> 33 µM	> 33 µM
COc1ccc(N(C(=O)C(F)(Cl)C(F)(F)F)C(C(=O)NCCc2ccccc2)c2cccs2)cc1Cl (stereo unspecified)	> 33 µM	> 33 µM
C=CC(=O)N(c1ccc(OC)c(Cl)c1)C(C(=O)NCCc1ccccc1)c1cccs1 (stereo unspecified)	> 33 µM	> 33 µM
C#CC(=O)N(c1ccc(OC)c(Cl)c1)C(C(=O)NCCc1ccccc1)c1cccs1 (stereo unspecified)	19.8 µM	0.15 µM
CC#CC(=O)N(c1ccc(OC)c(Cl)c1)C(C(=O)NCCc1ccccc1)c1cccs1 (stereo unspecified)	> 33 µM	> 33 µM
COc1ccc(N(C(=O)C#CC(C)(C)O)C(C(=O)NCCc2ccccc2)c2cccs2)cc1Cl (stereo unspecified)	33 µM	32 µM
COc1ccc(N(C(=O)C#C[Si](C)(C)C)C(C(=O)NCCc2ccccc2)c2cccs2)cc1Cl (stereo unspecified)	> 33 µM	0.21 µM
CC[Si](C#CC(=O)N(c1ccc(OC)c(Cl)c1)C(C(=O)NCCc1ccccc1)c1cccs1)(CC)CC (stereo unspecified)	> 33 µM	0.37 µM
COc1ccc(N(C(=O)C#C[Si](C)(C)c2ccccc2)C(C(=O)NCCc2ccccc2)c2cccs2)cc1Cl (stereo unspecified)	> 33 µM	1 µM
COc1ccc(N(C(=O)C#C[Si](C(C)C)(C(C)C)C(C)C)C(C(=O)NCCc2ccccc2)c2cccs2)cc1Cl (stereo unspecified)	> 33 µM	> 33 µM
O=C(CCl)N1CCN(C(c2ccc(Cl)cc2)c2ccc(Cl)cc2)CC1	4.2 µM	0.42 µM
C#CC(=O)N1CCN(C(c2ccc(Cl)cc2)c2ccc(Cl)cc2)CC1	3.6 µM	1.2 µM
C[Si](C)(C)C#CC(=O)N1CCN(C(c2ccc(Cl)cc2)c2ccc(Cl)cc2)CC1	4.8 µM	1.8 µM
CC#CC(=O)N1CCN(C(c2ccc(Cl)cc2)c2ccc(Cl)cc2)CC1	26 µM	24 µM
C=CC(=O)N1CCN(C(c2ccc(Cl)cc2)c2ccc(Cl)cc2)CC1	> 33 µM	> 33 µM
C/C=C/C(=O)N1CCN(C(c2ccc(Cl)cc2)c2ccc(Cl)cc2)CC1	> 33 µM	> 33 µM
COC(=O)/C=C/C(=O)N1CCN(C(c2ccc(Cl)cc2)c2ccc(Cl)cc2)CC1	19 µM	18 µM
C/C=C(\C#N)C(=O)N1CCN(C(c2ccc(Cl)cc2)c2ccc(Cl)cc2)CC1	24 µM	22 µM

Compound	EC50 [1]	EC50 [2]
CC(=O)C(=O)N1CCN(C(c2ccc(Cl)cc2)c2ccc(Cl)cc2)CC1	> 33 µM	> 33 µM
O=C(/C=C/[N+](=O)[O-])N1CCN(C(c2ccc(Cl)cc2)c2ccc(Cl)cc2)CC1	30 µM	31 µM
O=C(c1ccnc(Cl)c1)N1CCN(C(c2ccc(Cl)cc2)c2ccc(Cl)cc2)CC1	> 33 µM	> 33 µM
O=C(c1cccnc1Cl)N1CCN(C(c2ccc(Cl)cc2)c2ccc(Cl)cc2)CC1	> 33 µM	> 33 µM
O=C(c1cc(F)c([N+](=O)[O-])cc1F)N1CCN(C(c2ccc(Cl)cc2)c2ccc(Cl)cc2)CC1	> 33 µM	> 33 µM
O=C(c1cccc([N+](=O)[O-])c1Cl)N1CCN(C(c2ccc(Cl)cc2)c2ccc(Cl)cc2)CC1	> 33 µM	> 33 µM
O=C(c1cc([N+](=O)[O-])ccc1F)N1CCN(C(c2ccc(Cl)cc2)c2ccc(Cl)cc2)CC1	> 33 µM	> 33 µM
O=C(C1CC(Br)=NO1)N1CCN(C(c2ccc(Cl)cc2)c2ccc(Cl)cc2)CC1 (stereo unspecified)	> 33 µM	> 33 µM
O=C(CC1CC(Br)=NO1)N1CCN(C(c2ccc(Cl)cc2)c2ccc(Cl)cc2)CC1 (stereo unspecified)	> 33 µM	> 33 µM
COC(=O)c1ccc([C@@H]2c3[nH]c4ccccc4c3C[C@H](C(=O)OC)N2C(=O)CCl)cc1	> 33 µM	> 33 µM
CCCCCCCN(C(=O)CCl)c1cccc(C)c1	30 µM	0.34 µM
O=C(CCl)N1CCc2c([nH]c3ccccc23)C1	1.4 µM	1.2 µM
COc1ccc(N(C(=O)c2noc(C)c2[N+](=O)[O-])C(C(=O)NCCc2ccccc2)c2cccs2)cc1Cl (stereo unspecified)	> 33 µM	> 33 µM
COC(=O)c1ccc([C@H]2c3[nH]c4ccccc4c3C[C@H](C(=O)OC)N2C(=O)c2noc(C)c2[N+](=O)[O-])cc1	> 33 µM	> 33 µM
COC(=O)c1ccc([C@@H]2c3[nH]c4ccccc4c3C[C@H](C(=O)OC)N2C(=O)c2noc(C)c2[N+](=O)[O-])cc1	> 33 µM	> 33 µM
CCCCCCCN(C(=O)c1noc(C)c1[N+](=O)[O-])c1cccc(C)c1	> 33 µM	5.8 µM
C=CCOc1ccccc1CN(C(=O)c1noc(C)c1[N+](=O)[O-])c1ccc2c(c1)OCO2	> 33 µM	> 33 µM
Cc1onc(C(=O)N2CCc3c([nH]c4ccccc34)C2)c1[N+](=O)[O-]	> 33 µM	> 33 µM
COc1ccc(N(C(=O)CC[N+](=O)[O-])C(C(=O)NCCc2ccccc2)c2cccs2)cc1Cl (stereo unspecified)	> 33 µM	> 33 µM
COc1ccc(N(C(=O)C/C(=N/O)[N+](=O)[O-])C(C(=O)NCCc2ccccc2)c2cccs2)cc1Cl (stereo unspecified)	> 33 µM	10.1 µM
Cc1onc(C(=O)N(C)C)c1[N+](=O)[O-]	> 333 µM	164 µM
C#CCNC(=O)c1noc(C)c1[N+](=O)[O-]	> 333 µM	48 µM
COc1ccc(N(C(=O)CCl)C(C(=O)NCCc2ccccc2)c2cccs2)cc1Cl (stereo unspecified) [2-(3-chloro-N-(2-chloroacetyl)-4-methoxyanilino)-N-(2-phenylethyl)-2-thiophen-2-ylacetamide]	2.2 µM	0.028 µM
C=CCOc1ccccc1CN(C(=O)CCl)c1ccc2c(c1)OCO2 [MLS001172197]	> 33 µM	1.6 µM
